Experimental data: ChEMBL document CHEMBL1147146, “Cells lacking DNA topoisomerase II beta are resistant to genistein” (J Nat Prod, 2007)
Active and inactive are the calls of the source. No cut-off for these calls is given here.

Columns and labels:
[1] = target: T1, DNA topoisomerase 1 (Homo sapiens) (UniProt P11387); settings: K562
T1 sequence (whole entry): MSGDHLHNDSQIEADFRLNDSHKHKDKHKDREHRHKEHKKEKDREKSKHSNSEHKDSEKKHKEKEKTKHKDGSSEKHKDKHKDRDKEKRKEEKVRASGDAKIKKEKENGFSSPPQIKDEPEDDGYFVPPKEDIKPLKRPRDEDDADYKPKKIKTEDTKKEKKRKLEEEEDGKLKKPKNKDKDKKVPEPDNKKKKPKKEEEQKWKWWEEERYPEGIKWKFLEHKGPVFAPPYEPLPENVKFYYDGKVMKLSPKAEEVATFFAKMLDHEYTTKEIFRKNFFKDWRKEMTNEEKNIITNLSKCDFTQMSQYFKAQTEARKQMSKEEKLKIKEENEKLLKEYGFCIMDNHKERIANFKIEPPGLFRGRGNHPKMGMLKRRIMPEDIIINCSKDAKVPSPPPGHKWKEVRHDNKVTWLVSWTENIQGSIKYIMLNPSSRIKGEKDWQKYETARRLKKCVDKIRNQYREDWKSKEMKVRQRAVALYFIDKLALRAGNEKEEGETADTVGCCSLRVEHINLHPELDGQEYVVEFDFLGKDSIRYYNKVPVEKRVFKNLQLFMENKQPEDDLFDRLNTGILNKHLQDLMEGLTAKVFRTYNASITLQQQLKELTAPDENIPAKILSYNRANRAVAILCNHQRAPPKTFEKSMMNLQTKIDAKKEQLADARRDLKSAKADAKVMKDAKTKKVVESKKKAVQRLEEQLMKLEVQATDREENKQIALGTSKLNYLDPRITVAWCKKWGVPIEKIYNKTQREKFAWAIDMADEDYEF
Description: Induction of topoisomerase 1-DNA complexes in K562 cells assessed as integrated green fluorescence at 10 times their IC50 after 8 hrs by TARDIS assay

[2] = target: T1, DNA topoisomerase 1 (Homo sapiens); settings: K562; remark: listed apart in the source
Description: Induction of topoisomerase 1-DNA complexes in K562 cells assessed as integrated green fluorescence at 10 times their IC50 after 2 hrs by TARDIS assay

[3] = target: T1, DNA topoisomerase 1 (Homo sapiens); settings: K562, 10 uM
Description: Induction of topoisomerase 1-DNA complexes in K562 cells assessed as integrated green fluorescence at 10 uM after 1 hr by TARDIS assay

[4] = target: T1, DNA topoisomerase 1 (Homo sapiens); settings: K562; remark: listed apart in the source
Description: Induction of topoisomerase 1-DNA complexes in K562 cells assessed as integrated green fluorescence at 10 times their IC50 after 24 hrs by TARDIS assay

[5] = target: DNA topoisomerase 2-alpha (Homo sapiens) (UniProt P11388); settings: K562, 10 uM
Description: Induction of human recombinant topoisomerase 2-DNA complexes in K562 cells assessed as integrated green fluorescence at 10 uM after 2 hrs by TARDIS assay

[6] = target: DNA topoisomerase 2-alpha (Homo sapiens) (UniProt P11388); settings: K562
Description: Induction of human recombinant topoisomerase 2-DNA complexes in K562 cells assessed as integrated green fluorescence at 10 times their IC50 after 2 hrs by TARDIS assay

[7] = target: DNA topoisomerase 2-alpha (Homo sapiens) (UniProt P11388); settings: K562; remark: listed apart in the source
Description: Induction of human recombinant topoisomerase 2-DNA complexes in K562 cells assessed as integrated green fluorescence at 10 times their IC50 after 8 hrs by TARDIS assay

[8] = target: DNA topoisomerase 2-alpha (Homo sapiens) (UniProt P11388); settings: K562; remark: listed apart in the source
Description: Induction of human recombinant topoisomerase 2-DNA complexes in K562 cells assessed as integrated green fluorescence at 10 times their IC50 after 24 hrs by TARDIS assay

[9] = target: DNA topoisomerase 2-beta (Homo sapiens) (UniProt Q02880); assay: Induction of human recombinant topoisomerase 2beta-DNA complex in K562 cells assessed as integrated fluorescence at 10 uM after 2 hrs by TARDIS assay; format: cell-based
[10] = target: DNA topoisomerase 2-alpha (Homo sapiens) (UniProt P11388); assay: Induction of human recombinant topoisomerase 2-DNA complexes in K562 cells assessed as integrated green fluorescence at 175 uM after 24 hrs by TARDIS assay; format: cell-based
[11] = target: DNA topoisomerase 2-beta (Homo sapiens) (UniProt Q02880); assay: Induction of human recombinant topoisomerase 2beta-DNA complex in K562 cells assessed as integrated fluorescence at 175 uM after 2 hrs by TARDIS assay; format: cell-based
[12] = Growth inhibition of mouse wild-type topoisomerase 2-beta +/+ cells after 4 hrs by colonogenic assay; format: functional
[13] = target: DNA topoisomerase 2-alpha (Homo sapiens) (UniProt P11388); assay: Induction of human recombinant topoisomerase 2-DNA complexes in K562 cells assessed as integrated green fluorescence at 175 uM after 6 hrs by TARDIS assay; format: cell-based
[14] = target: T1, DNA topoisomerase 1 (Homo sapiens); assay: Induction of topoisomerase 1-DNA complexes in K562 cells assessed as integrated green fluorescence at 175 uM after 2 hrs by TARDIS assay; format: cell-based
[15] = target: T1, DNA topoisomerase 1 (Homo sapiens); assay: Induction of topoisomerase 1-DNA complexes in K562 cells assessed as integrated green fluorescence at 175 uM after 0.5 hrs by TARDIS assay; format: cell-based
[16] = target: DNA topoisomerase 2-alpha (Homo sapiens) (UniProt P11388); assay: Induction of human recombinant topoisomerase 2-DNA complexes in K562 cells assessed as integrated green fluorescence at 175 uM after 0.5 hrs by TARDIS assay; format: cell-based
[17] = target: T1, DNA topoisomerase 1 (Homo sapiens); assay: Induction of topoisomerase 1-DNA complexes in K562 cells assessed as integrated green fluorescence at 175 uM after 24 hrs by TARDIS assay; format: cell-based
[18] = target: T1, DNA topoisomerase 1 (Homo sapiens); assay: Inhibition of topoisomerase 1 assessed as reduction of camptothecin-induced topo 1-DNA complexes in K562 cells by measuring integrated fluorescence at 17 uM after 24 hrs by TARDIS assay; format: cell-based
[19] = Survival of mouse topoisomerase 2-beta -/- cells at 100 uM after 4 hrs by colonogenic assay; format: functional
[20] = Survival of mouse wild-type topoisomerase 2beta +/+cells at 100 uM after 4 hrs by colonogenic assay; format: functional
K562 = assay: Growth inhibition of K562 cells by XTT assay after 5 days; format: functional, cell-based; settings: Homo sapiens, K562, 120 h
Mus musculus [21] = species on record: Mus musculus; assay: Growth inhibition of mouse topoisomerase 2-beta -/- cells at 100 to 300 uM after 4 hrs by XTT assay; format: functional
Mus musculus [22] = species on record: Mus musculus; assay: Growth inhibition of mouse topoisomerase 2-beta +/+ cells at 100 to 300 uM after 4 hrs by XTT assay; format: functional
[23] = target: DNA topoisomerase 2-alpha (Homo sapiens) (UniProt P11388); assay: Induction of human recombinant topoisomerase 2-DNA complexes in K562 cells assessed as integrated green fluorescence at 175 uM after 2 hrs by TARDIS assay; format: cell-based
[24] = Growth inhibition of mouse knock out topoisomerase 2-beta -/- cells after 4 hrs by colonogenic assay; format: functional
[25] = target: DNA topoisomerase 2-alpha (Homo sapiens) (UniProt P11388); assay: Inhibition of human recombinant topoisomerase 2 assessed as reduction of etoposide-induced topo 2-DNA complexes in K562 cells by measuring integrated fluorescence at 17 uM after 24 hrs by TARDIS assay; format: cell-based
[26] = target: DNA topoisomerase 2-alpha (Homo sapiens) (UniProt P11388); assay: Inhibition of human recombinant topoisomerase 2 assessed as reduction of etoposide-induced topo 2-DNA complexes in K562 cells by measuring integrated fluorescence at 175 uM after 24 hrs by TARDIS assay; format: cell-based
[27] = Growth inhibition of mouse topoisomerase 2-beta -/- cells at 300 uM after 4 hrs by colonogenic assay; format: functional; set-up: scale not given: the % may be the effect or the level left
[28] = target: T1, DNA topoisomerase 1 (Homo sapiens); assay: Induction of topoisomerase 1-DNA complexes in K562 cells assessed as integrated green fluorescence at 175 uM after 6 hrs by TARDIS assay; format: cell-based
[29] = target: T1, DNA topoisomerase 1 (Homo sapiens); assay: Inhibition of topoisomerase 1 assessed as reduction of camptothecin-induced topo 1-DNA complexes in K562 cells by measuring integrated fluorescence at 175 uM after 24 hrs by TARDIS assay; format: cell-based
[30] = target: DNA topoisomerase 2-alpha (Homo sapiens) (UniProt P11388); assay: Induction of human recombinant topoisomerase 2-DNA complexes in K562 cells assessed as integrated green fluorescence at 146 uM after 0.5 hrs by TARDIS assay; format: cell-based
[31] = target: T1, DNA topoisomerase 1 (Homo sapiens); assay: Induction of topoisomerase 1-DNA complexes in K562 cells assessed as integrated green fluorescence at 146 uM after 24 hrs by TARDIS assay; format: cell-based
[32] = target: DNA topoisomerase 2-alpha (Homo sapiens) (UniProt P11388); assay: Induction of human recombinant topoisomerase 2-DNA complexes in K562 cells assessed as integrated green fluorescence at 146 uM after 6 hrs by TARDIS assay; format: cell-based
[33] = target: T1, DNA topoisomerase 1 (Homo sapiens); assay: Induction of topoisomerase 1-DNA complexes in K562 cells assessed as integrated green fluorescence at 146 uM after 2 hrs by TARDIS assay; format: cell-based
[34] = target: DNA topoisomerase 2-alpha (Homo sapiens) (UniProt P11388); assay: Inhibition of human recombinant topoisomerase 2 assessed as reduction of etoposide-induced topo 2-DNA complexes in K562 cells by measuring integrated fluorescence at 14 uM after 24 hrs by TARDIS assay; format: cell-based
[35] = target: DNA topoisomerase 2-alpha (Homo sapiens) (UniProt P11388); assay: Inhibition of human recombinant topoisomerase 2 assessed as reduction of etoposide-induced topo 2-DNA complexes in K562 cells by measuring integrated fluorescence at 146 uM after 24 hrs by TARDIS assay; format: cell-based
[36] = target: T1, DNA topoisomerase 1 (Homo sapiens); assay: Induction of topoisomerase 1-DNA complexes in K562 cells assessed as integrated green fluorescence at 146 uM after 6 hrs by TARDIS assay; format: cell-based
[37] = target: DNA topoisomerase 2-alpha (Homo sapiens) (UniProt P11388); assay: Induction of human recombinant topoisomerase 2-DNA complexes in K562 cells assessed as integrated green fluorescence at 146 uM after 2 hrs by TARDIS assay; format: cell-based
[38] = target: T1, DNA topoisomerase 1 (Homo sapiens); assay: Inhibition of topoisomerase 1 assessed as reduction of camptothecin-induced topo 1-DNA complexes in K562 cells by measuring integrated fluorescence at 146 uM after 24 hrs by TARDIS assay; format: cell-based
[39] = target: T1, DNA topoisomerase 1 (Homo sapiens); assay: Inhibition of topoisomerase 1 assessed as reduction of camptothecin-induced topo 1-DNA complexes in K562 cells by measuring integrated fluorescence at 14 uM after 24 hrs by TARDIS assay; format: cell-based
[40] = target: DNA topoisomerase 2-alpha (Homo sapiens) (UniProt P11388); assay: Induction of human recombinant topoisomerase 2-DNA complexes in K562 cells assessed as integrated green fluorescence at 146 uM after 24 hrs by TARDIS assay; format: cell-based
[41] = target: T1, DNA topoisomerase 1 (Homo sapiens); assay: Induction of topoisomerase 1-DNA complexes in K562 cells assessed as integrated green fluorescence at 146 uM after 0.5 hrs by TARDIS assay; format: cell-based

DNA topoisomerase 2-alpha (Homo sapiens), sequence (P11388 whole entry): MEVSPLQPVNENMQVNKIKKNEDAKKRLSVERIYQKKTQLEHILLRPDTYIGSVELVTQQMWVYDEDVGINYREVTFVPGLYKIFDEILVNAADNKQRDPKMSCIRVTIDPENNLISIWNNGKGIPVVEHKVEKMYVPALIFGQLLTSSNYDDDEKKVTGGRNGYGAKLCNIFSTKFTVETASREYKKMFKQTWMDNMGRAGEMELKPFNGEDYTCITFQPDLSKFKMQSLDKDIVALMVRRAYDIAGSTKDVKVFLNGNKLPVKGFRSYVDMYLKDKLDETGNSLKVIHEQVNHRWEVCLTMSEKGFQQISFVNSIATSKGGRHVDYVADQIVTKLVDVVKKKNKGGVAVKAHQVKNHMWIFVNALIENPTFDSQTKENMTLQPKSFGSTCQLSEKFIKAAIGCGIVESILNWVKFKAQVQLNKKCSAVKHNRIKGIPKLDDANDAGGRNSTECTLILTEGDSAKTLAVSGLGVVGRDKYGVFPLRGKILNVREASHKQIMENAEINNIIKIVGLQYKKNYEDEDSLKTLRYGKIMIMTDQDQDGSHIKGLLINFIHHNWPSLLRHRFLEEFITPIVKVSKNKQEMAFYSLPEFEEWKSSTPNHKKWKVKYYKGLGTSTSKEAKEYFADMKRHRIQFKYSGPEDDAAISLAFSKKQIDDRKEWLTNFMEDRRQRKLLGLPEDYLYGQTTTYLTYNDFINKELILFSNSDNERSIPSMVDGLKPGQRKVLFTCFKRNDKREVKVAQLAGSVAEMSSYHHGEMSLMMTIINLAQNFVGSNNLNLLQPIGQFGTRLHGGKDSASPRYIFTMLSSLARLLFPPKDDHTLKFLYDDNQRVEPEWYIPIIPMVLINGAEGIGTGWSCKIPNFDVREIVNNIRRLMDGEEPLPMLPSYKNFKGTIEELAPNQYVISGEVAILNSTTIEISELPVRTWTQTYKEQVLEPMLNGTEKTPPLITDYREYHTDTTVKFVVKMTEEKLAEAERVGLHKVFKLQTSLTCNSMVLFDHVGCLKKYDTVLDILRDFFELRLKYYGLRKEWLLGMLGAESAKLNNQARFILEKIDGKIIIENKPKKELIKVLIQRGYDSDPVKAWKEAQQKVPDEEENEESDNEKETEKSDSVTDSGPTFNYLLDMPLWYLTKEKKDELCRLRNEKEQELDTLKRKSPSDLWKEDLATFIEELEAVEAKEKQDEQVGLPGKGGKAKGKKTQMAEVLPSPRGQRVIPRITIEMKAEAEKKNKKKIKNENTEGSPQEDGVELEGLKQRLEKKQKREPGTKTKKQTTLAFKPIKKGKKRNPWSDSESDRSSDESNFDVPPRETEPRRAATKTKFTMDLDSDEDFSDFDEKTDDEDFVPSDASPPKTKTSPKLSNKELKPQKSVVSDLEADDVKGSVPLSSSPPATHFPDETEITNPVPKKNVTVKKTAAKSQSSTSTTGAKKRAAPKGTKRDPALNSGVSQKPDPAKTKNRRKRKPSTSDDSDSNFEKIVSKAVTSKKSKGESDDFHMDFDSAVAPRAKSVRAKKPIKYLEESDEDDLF
DNA topoisomerase 2-beta (Homo sapiens), sequence (Q02880 whole entry): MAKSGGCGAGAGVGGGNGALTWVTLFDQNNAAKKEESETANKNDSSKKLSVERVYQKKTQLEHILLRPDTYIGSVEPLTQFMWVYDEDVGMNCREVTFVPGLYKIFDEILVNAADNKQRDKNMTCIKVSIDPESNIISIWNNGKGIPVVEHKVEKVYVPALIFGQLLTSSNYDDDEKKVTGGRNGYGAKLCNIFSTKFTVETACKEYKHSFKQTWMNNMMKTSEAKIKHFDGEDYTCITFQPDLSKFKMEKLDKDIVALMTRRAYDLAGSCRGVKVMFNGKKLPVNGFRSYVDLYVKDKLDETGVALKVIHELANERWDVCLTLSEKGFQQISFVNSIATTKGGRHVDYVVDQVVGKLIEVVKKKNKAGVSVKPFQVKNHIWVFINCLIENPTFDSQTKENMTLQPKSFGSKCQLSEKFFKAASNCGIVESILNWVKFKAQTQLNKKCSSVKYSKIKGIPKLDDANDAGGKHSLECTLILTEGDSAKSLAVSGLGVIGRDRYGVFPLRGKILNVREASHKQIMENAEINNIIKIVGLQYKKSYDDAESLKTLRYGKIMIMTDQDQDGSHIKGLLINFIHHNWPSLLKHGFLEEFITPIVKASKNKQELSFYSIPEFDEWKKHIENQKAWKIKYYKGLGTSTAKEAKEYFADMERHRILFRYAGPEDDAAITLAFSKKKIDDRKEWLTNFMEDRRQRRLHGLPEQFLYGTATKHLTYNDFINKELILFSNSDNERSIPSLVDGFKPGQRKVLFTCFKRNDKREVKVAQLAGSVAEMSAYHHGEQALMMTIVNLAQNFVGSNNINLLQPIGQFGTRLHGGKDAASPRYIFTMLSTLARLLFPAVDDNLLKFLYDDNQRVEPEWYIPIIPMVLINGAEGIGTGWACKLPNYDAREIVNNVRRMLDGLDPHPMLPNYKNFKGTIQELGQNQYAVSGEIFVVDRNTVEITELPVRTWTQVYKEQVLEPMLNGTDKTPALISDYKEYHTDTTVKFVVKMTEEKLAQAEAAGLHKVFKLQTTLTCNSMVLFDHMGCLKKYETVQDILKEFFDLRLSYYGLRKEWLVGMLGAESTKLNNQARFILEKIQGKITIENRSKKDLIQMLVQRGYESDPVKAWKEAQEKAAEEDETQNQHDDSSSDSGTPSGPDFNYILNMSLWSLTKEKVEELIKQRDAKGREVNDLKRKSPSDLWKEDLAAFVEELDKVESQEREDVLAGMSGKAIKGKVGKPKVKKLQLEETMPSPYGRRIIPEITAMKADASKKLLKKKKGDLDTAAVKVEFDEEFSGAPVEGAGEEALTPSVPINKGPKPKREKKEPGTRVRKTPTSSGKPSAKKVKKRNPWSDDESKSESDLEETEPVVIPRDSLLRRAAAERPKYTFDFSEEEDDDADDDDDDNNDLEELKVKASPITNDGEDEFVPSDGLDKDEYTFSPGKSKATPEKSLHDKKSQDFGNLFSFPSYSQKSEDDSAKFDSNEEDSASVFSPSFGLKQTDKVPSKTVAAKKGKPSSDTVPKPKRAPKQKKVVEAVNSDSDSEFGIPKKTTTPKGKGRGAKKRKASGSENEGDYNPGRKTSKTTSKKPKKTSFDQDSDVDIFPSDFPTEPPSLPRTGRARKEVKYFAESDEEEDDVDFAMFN

## CC[C@@]1(O)C(=O)OCc2c1cc1n(c2=O)Cc2cc3ccccc3nc2-1
[1]
  Fluorescence intensity: 1.58
[2]
  Fluorescence intensity: 2.51
[3]
  Fluorescence intensity: 11.4
[4]
  Fluorescence intensity: 1.04

## COc1cc([C@@H]2c3cc4c(cc3[C@@H](O[C@@H]3O[C@@H]5CO[C@@H](C)O[C@H]5[C@H](O)[C@H]3O)[C@H]3COC(=O)[C@H]23)OCO4)cc(OC)c1O
[5]
  Fluorescence intensity: 49.4
[6]
  Fluorescence intensity: 13.2
[7]
  Fluorescence intensity: 20.9
[8]
  Fluorescence intensity: 23.4
[9]
  Fluorescence intensity: 3940

## O=c1c(-c2ccc(O)cc2)coc2cc(O)cc(O)c12 [GENISTEIN]
[10]
  Fluorescence intensity: 12.6
[11]
  Fluorescence intensity: 12700
[12]
  IC50: 47 µM
[13]
  Fluorescence intensity: 7.03
[14]
  Fluorescence intensity: 0.44
[15]
  Fluorescence intensity: 0.96
[16]
  Fluorescence intensity: 7.03
[17]
  Fluorescence intensity: 0.18
[18]
  Fluorescence intensity: 112%
[19]
  Activity: 50%
[20]
  Activity: 0%
K562
  IC50: 17.6 µM
Mus musculus [21]
  Activity: inactive
Mus musculus [22]
  Activity: Active
[23]
  Fluorescence intensity: 20.4
[24]
  IC50: 300 µM
[25]
  Fluorescence intensity: 95%
[26]
  Fluorescence intensity: 67%
[27]
  Activity: 50%
[28]
  Fluorescence intensity: 0.44
[29]
  Fluorescence intensity: 148%

## O=c1cc(-c2ccc(O)c(O)c2)oc2cc(O)cc(O)c12 [LUTEOLIN]
[30]
  Fluorescence intensity: 3.17
[31]
  Fluorescence intensity: 0.19
[32]
  Fluorescence intensity: 7.39
[33]
  Activity: 0.28
[34]
  Fluorescence intensity: 133%
[35]
  Fluorescence intensity: 85%
[36]
  Fluorescence intensity: 0.51
[37]
  Activity: 4.08
K562
  IC50: 14.7 µM
[38]
  Fluorescence intensity: 52%
[39]
  Fluorescence intensity: 99%
[40]
  Fluorescence intensity: 5.05
[41]
  Fluorescence intensity: 0.49
